According to paper PMC12454493, “Insight on novel sulfamoylphenyl pyrazole derivatives as anticancer carbonic anhydrase inhibitors” (Molecular Diversity, 2024):

Key:
Type in all cases: cell-based
BT-549 = test: NCI-60 one-dose SRB screen (Breast Cancer); conditions: Homo sapiens, single dose 10 µM, 48 h, read-out: Growth inhibition percent (GI %)
Protocol: (§1) The National Cancer Institute (NCI) Developmental Therapeutic Program (www.dtp.nci.nih.gov) selected the 20 novel synthesized compounds 4a-e, 5a-e, 6a-c, 9a-e, 10 and 11 to test for their anticancer activity at a single dose of 10 µM using SRB assay. […] Supplementary Data S3; Table S1 presents the detailed screening results of the most promising compounds. The preliminary screening’s detailed results for the remaining compounds are elucidated in the (Supplementary Data S3; Table S2).
(§2) The guidelines of the Drug Evaluation Branch’s protocol at the NCI in Bethesda served as the basis for the in vitro anticancer screening assays. at one dose 10 µM against a panel of 60 cancer cell lines. The human tumor cell lines used belonged to nine panels: leukemia, melanoma, lung, colon, CNS, ovarian, renal, prostate and breast cancers using the sulforhodamine B (SRB) assay in a 48 h drug exposure protocol.

HS 578T = test: NCI-60 one-dose SRB screen (Breast Cancer); conditions: Homo sapiens, single dose 10 µM, 48 h, read-out: Growth inhibition percent (GI %)
Protocol: as §1, §2

MDA-MB-231/ATCC = test: NCI-60 one-dose SRB screen (Breast Cancer); conditions: Homo sapiens, single dose 10 µM, 48 h, read-out: Growth inhibition percent (GI %)
Protocol: as §1, §2

MCF-7 = test: NCI-60 one-dose SRB screen (Breast Cancer); conditions: Homo sapiens, MCF7, single dose 10 µM, 48 h, read-out: Growth inhibition percent (GI %)
Protocol: as §1, §2

MDA-MB-468 = test: NCI-60 one-dose SRB screen (Breast Cancer); conditions: Homo sapiens, single dose 10 µM, 48 h, read-out: Growth inhibition percent (GI %)
Protocol: as §1, §2

T-47D = test: NCI-60 one-dose SRB screen (Breast Cancer); conditions: Homo sapiens, T47D, single dose 10 µM, 48 h, read-out: Growth inhibition percent (GI %)
Protocol: as §1, §2

SK-MEL-28 = test: NCI-60 one-dose SRB screen (Melanoma); conditions: Homo sapiens, single dose 10 µM, 48 h, read-out: Growth inhibition percent (GI %)
Protocol: as §1, §2

LOX IMVI = test: NCI-60 one-dose SRB screen (Melanoma); conditions: Homo sapiens, single dose 10 µM, 48 h, read-out: Growth inhibition percent (GI %)
Protocol: as §1, §2

UACC-62 = test: NCI-60 one-dose SRB screen (Melanoma); conditions: Homo sapiens, single dose 10 µM, 48 h, read-out: Growth inhibition percent (GI %)
Protocol: as §1, §2

M14 = test: NCI-60 one-dose SRB screen (Melanoma); conditions: Homo sapiens, single dose 10 µM, 48 h, read-out: Growth inhibition percent (GI %)
Protocol: as §1, §2

UACC-257 = test: NCI-60 one-dose SRB screen (Melanoma); conditions: Homo sapiens, single dose 10 µM, 48 h, read-out: Growth inhibition percent (GI %)
Protocol: as §1, §2

MALME-3M = test: NCI-60 one-dose SRB screen (Melanoma); conditions: Homo sapiens, single dose 10 µM, 48 h, read-out: Growth inhibition percent (GI %)
Protocol: as §1, §2

SK-MEL-2 = test: NCI-60 one-dose SRB screen (Melanoma); conditions: Homo sapiens, single dose 10 µM, 48 h, read-out: Growth inhibition percent (GI %)
Protocol: as §1, §2

MDA-MB-435 = test: NCI-60 one-dose SRB screen (Melanoma); conditions: Homo sapiens, single dose 10 µM, 48 h, read-out: Growth inhibition percent (GI %)
Protocol: as §1, §2

SK-MEL-5 = test: NCI-60 one-dose SRB screen (Melanoma); conditions: Homo sapiens, single dose 10 µM, 48 h, read-out: Growth inhibition percent (GI %)
Protocol: as §1, §2

RXF 393 = test: NCI-60 one-dose SRB screen (Renal Cancer); conditions: Homo sapiens, single dose 10 µM, 48 h, read-out: Growth inhibition percent (GI %)
Protocol: as §1, §2

UO-31 = test: NCI-60 one-dose SRB screen (Renal Cancer); conditions: Homo sapiens, single dose 10 µM, 48 h, read-out: Growth inhibition percent (GI %)
Protocol: as §1, §2

786-0 = test: NCI-60 one-dose SRB screen (Renal Cancer); conditions: Homo sapiens, single dose 10 µM, 48 h, read-out: Growth inhibition percent (GI %)
Protocol: as §1, §2

ACHN = test: NCI-60 one-dose SRB screen (Renal Cancer); conditions: Homo sapiens, single dose 10 µM, 48 h, read-out: Growth inhibition percent (GI %)
Protocol: as §1, §2

CAKI-1 = test: NCI-60 one-dose SRB screen (Renal Cancer); conditions: Homo sapiens, single dose 10 µM, 48 h, read-out: Growth inhibition percent (GI %)
Protocol: as §1, §2

A498 = test: NCI-60 one-dose SRB screen (Renal Cancer); conditions: Homo sapiens, single dose 10 µM, 48 h, read-out: Growth inhibition percent (GI %)
Protocol: as §1, §2

TK-10 = test: NCI-60 one-dose SRB screen (Renal Cancer); conditions: Homo sapiens, single dose 10 µM, 48 h, read-out: Growth inhibition percent (GI %)
Protocol: as §1, §2

RPMI-8226 = test: NCI-60 one-dose SRB screen (Leukemia); conditions: Homo sapiens, single dose 10 µM, 48 h, read-out: Growth inhibition percent (GI %)
Protocol: as §1, §2

MOLT-4 = test: NCI-60 one-dose SRB screen (Leukemia); conditions: Homo sapiens, single dose 10 µM, 48 h, read-out: Growth inhibition percent (GI %)
Protocol: as §1, §2

SR = test: NCI-60 one-dose SRB screen (Leukemia); conditions: Homo sapiens, single dose 10 µM, 48 h, read-out: Growth inhibition percent (GI %)
Protocol: as §1, §2

HL-60(TB) = test: NCI-60 one-dose SRB screen (Leukemia); conditions: Homo sapiens, single dose 10 µM, 48 h, read-out: Growth inhibition percent (GI %)
Protocol: as §1, §2

CCRF-CEM = test: NCI-60 one-dose SRB screen (Leukemia); conditions: Homo sapiens, single dose 10 µM, 48 h, read-out: Growth inhibition percent (GI %)
Protocol: as §1, §2

K-562 = test: NCI-60 one-dose SRB screen (Leukemia); conditions: Homo sapiens, K562, single dose 10 µM, 48 h, read-out: Growth inhibition percent (GI %)
Protocol: as §1, §2

PC-3 = test: NCI-60 one-dose SRB screen (Prostate Cancer); conditions: Homo sapiens, single dose 10 µM, 48 h, read-out: Growth inhibition percent (GI %)
Protocol: as §1, §2

DU-145 = test: NCI-60 one-dose SRB screen (Prostate Cancer); conditions: Homo sapiens, single dose 10 µM, 48 h, read-out: Growth inhibition percent (GI %)
Protocol: as §1, §2

Structure (SMILES): CCOC(=O)c1ccc(NC(=O)COC(=O)c2cn(-c3ccc(S(N)(=O)=O)cc3)nc2-c2ccccc2)cc1 [Compound 5a, 2-[(4-(Ethoxycarbonyl)phenyl)amino]-2-oxoethyl 3-phenyl-1-(4-sulfamoylphenyl)-1H-pyrazole-4-carboxylate]
- inhibition at 10 µM (BT-549): 64.1%
- inhibition at 10 µM (HS 578T): 44.6%
- inhibition at 10 µM (MDA-MB-231/ATCC): 35.8%
- inhibition at 10 µM (MCF-7): 81.6%
- inhibition at 10 µM (MDA-MB-468): 62%
- inhibition at 10 µM (T-47D): 69.7%
- inhibition at 10 µM (SK-MEL-28): 54.5%
- inhibition at 10 µM (LOX IMVI): 69.2%
- inhibition at 10 µM (UACC-62): 55.2%
- inhibition at 10 µM (M14): 63.5%
- inhibition at 10 µM (UACC-257): 48%
- inhibition at 10 µM (MALME-3M): 79.1%
- inhibition at 10 µM (SK-MEL-2): 50.8%
- inhibition at 10 µM (MDA-MB-435): 45.1%
- inhibition at 10 µM (SK-MEL-5): 70.1%
- inhibition at 10 µM (RXF 393): 66.5%
- inhibition at 10 µM (UO-31): 62.7%
- inhibition at 10 µM (786-0): 66.9%
- inhibition at 10 µM (ACHN): 76.1%
- inhibition at 10 µM (CAKI-1): 61.6%
- inhibition at 10 µM (A498): 25.3%
- inhibition at 10 µM (TK-10): 40.1%
- inhibition at 10 µM (RPMI-8226): 86.8%
- inhibition at 10 µM (MOLT-4): 89%
- inhibition at 10 µM (SR): 82.1%
- inhibition at 10 µM (HL-60(TB)): 92.1%
- inhibition at 10 µM (CCRF-CEM): 82%
- inhibition at 10 µM (K-562): 78.7%
- inhibition at 10 µM (PC-3): 68.1%
- inhibition at 10 µM (DU-145): 29.1%
